Patent US20210323950A1, “HERBICIDALLY ACTIVE BICYCLIC BENZOYLPYRAZOLES” (Bayer Aktiengesellschaft, priority 2018, published 2021)

How the values were obtained:
Type in all cases: in vivo
[1] = test system: Abutilon theophrasti (ABUTH); assay: Pre-emergence herbicidal action against ABUTH; conditions: scored visually after about 3 weeks vs untreated controls
Procedure, shortened: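 Sown pots had WP or EC formulations sprayed onto the covering soil as aqueous suspension/emulsion with 0.5% additive, then were kept in a greenhouse. After about 3 weeks, damage was scored visually as % versus untreated controls (100% = plants dead, 0% = like controls).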

[2] = test system: Amaranthus retroflexus (AMARE); assay: Pre-emergence herbicidal action against AMARE; conditions: scored visually after about 3 weeks vs untreated controls
Procedure, shortened: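 Formulated compounds (WP or EC) sprayed onto soil covering sown seeds, with 0.5% additive at […] water (converted). Greenhouse-grown about 3 weeks, then damage scored visually as percent versus untreated controls (100% = dead, 0% = like control).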

Stellaria media (STEME) = assay: Pre-emergence herbicidal action against STEME; conditions: scored visually after about 3 weeks vs untreated controls
Procedure, shortened: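 Weed seeds are sown in pots under soil, and WP or EC formulations are applied pre-emergence to the soil surface as an aqueous suspension or emulsion with 0.5% additive. After about 3 weeks in the greenhouse, effect is scored visually as % versus untreated controls (100% = plants dead, 0% = like control).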

Setaria viridis (SETVI) = assay: Post-emergence herbicidal action against SETVI; conditions: 20 g/ha, post-emergence at one-leaf stage, rated visually after about 3 weeks vs untreated controls
Procedure, shortened: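 Monocot and dicot weeds grown in sandy loam in greenhouse, sprayed post-emergence at one-leaf stage (2–3 weeks after sowing) with WP or EC formulations in water plus 0.5% additive at […] (converted). Visual rating after about 3 weeks versus untreated controls; 100% = plants dead, 0% = like control.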

[3] = test system: Amaranthus retroflexus (AMARE); assay: Post-emergence herbicidal action against AMARE; conditions: 20 g/ha, post-emergence at one-leaf stage, rated visually after about 3 weeks vs untreated controls
Procedure, shortened: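 Greenhouse-grown plants in sandy loam were treated at the one-leaf stage, 2–3 weeks after sowing. Activity was rated visually after about 3 weeks against untreated controls (100% = plants dead, 0% = like control).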

Viola tricolor (VIOTR) = assay: Post-emergence herbicidal action against VIOTR; conditions: 20 g/ha, post-emergence at one-leaf stage, rated visually after about 3 weeks vs untreated controls
Method: (§1) VIOTR: Viola tricolor 2. Post-Emergence Herbicidal Action and Crop Plant Compatibility Seeds of monocotyledonous and dicotyledonous weeds and crop plants are placed in sandy loam in plastic or organic planting pots, covered with soil and cultivated in a greenhouse under controlled growth conditions. 2 to 3 weeks after sowing, the test plants are treated at the one-leaf stage. The compounds of the invention, formulated in the form of wettable powders (WP) or as emulsion concentrates (EC), are then sprayed onto the green parts of the plants as aqueous suspension or emulsion with addition of 0.5% additive at a water application rate of […] (converted). After the test plants had been kept in the greenhouse under optimum growth conditions for about 3 weeks, the activity of the preparations is rated visually in comparison to untreated controls. The tables below show the herbicidal activity of numerous compounds according to the invention against important harmful plants. For example, 100% activity=the plants have died, 0% activity=like control plants.

Veronica persica (VERPE) = assay: Post-emergence herbicidal action against VERPE; conditions: 20 g/ha, post-emergence at one-leaf stage, rated visually after about 3 weeks vs untreated controls
Method: as §1, with “VERPE: Veronica persica” for “VIOTR: Viola tricolor”

Structure (SMILES): Cn1ncc(C(=O)c2ccc(C(F)(F)F)c3c2OCS3)c1O [Example 1-13]
- Pre-emergence action against ABUTH ([1]; 320 g/ha): 100%
- Pre-emergence action against AMARE ([2]; 320 g/ha): 100%
- Pre-emergence action against STEME (Stellaria media (STEME); 320 g/ha): 100%
- Post-emergence action against SETVI (Setaria viridis (SETVI)): 100%
- Post-emergence action against AMARE [3]: 90%

Structure (SMILES): Cn1ncc(C(=O)c2ccc(C(F)(F)F)c3c2OCCS3)c1O [Example 1-15]
- Pre-emergence action against AMARE ([2]; 80 g/ha): 100%
- Pre-emergence action against STEME (Stellaria media (STEME); 80 g/ha): 100%
- Post-emergence action against SETVI (Setaria viridis (SETVI)): 80%
- Post-emergence action against AMARE [3]: 80%
- Post-emergence action against VIOTR (Viola tricolor (VIOTR)): 80%

Structure (SMILES): Cn1ncc(C(=O)c2ccc(C(F)(F)F)c3c2OC[S+]3[O-])c1O (stereo not drawn) [Example 1-28]
- Pre-emergence action against ABUTH ([1]; 320 g/ha): 100%
- Pre-emergence action against STEME (Stellaria media (STEME); 320 g/ha): 100%
- Post-emergence action against SETVI (Setaria viridis (SETVI)): 90%
- Post-emergence action against AMARE [3]: 100%
- Post-emergence action against VIOTR (Viola tricolor (VIOTR)): 90%
- Post-emergence action against VERPE (Veronica persica (VERPE)): 90%

Structure (SMILES): Cn1ncc(C(=O)c2ccc(C(F)(F)F)c3c2OCC[S+]3[O-])c1O (stereo not drawn) [Example 1-30]
- Pre-emergence action against ABUTH ([1]; 80 g/ha): 100%
- Pre-emergence action against AMARE ([2]; 80 g/ha): 100%
- Pre-emergence action against STEME (Stellaria media (STEME); 80 g/ha): 100%
- Post-emergence action against SETVI (Setaria viridis (SETVI)): 90%
- Post-emergence action against AMARE [3]: 100%
- Post-emergence action against VIOTR (Viola tricolor (VIOTR)): 90%

Structure (SMILES): CCn1ncc(C(=O)c2ccc(C(F)(F)F)c3c2OCC[S+]3[O-])c1O (stereo not drawn) [Example 1-35]
- Pre-emergence action against ABUTH ([1]; 80 g/ha): 100%
- Pre-emergence action against AMARE ([2]; 80 g/ha): 100%
- Pre-emergence action against STEME (Stellaria media (STEME); 80 g/ha): 100%
- Post-emergence action against SETVI (Setaria viridis (SETVI)): 100%
- Post-emergence action against AMARE [3]: 100%
- Post-emergence action against VIOTR (Viola tricolor (VIOTR)): 100%

Structure (SMILES): Cc1nn(C)c(O)c1C(=O)c1ccc(C(F)(F)F)c2c1OCC[S+]2[O-] (stereo not drawn) [Example 1-40]
- Pre-emergence action against ABUTH ([1]; 80 g/ha): 100%
- Pre-emergence action against AMARE ([2]; 80 g/ha): 100%
- Pre-emergence action against STEME (Stellaria media (STEME); 80 g/ha): 100%
- Post-emergence action against SETVI (Setaria viridis (SETVI)): 80%
- Post-emergence action against AMARE [3]: 80%
- Post-emergence action against VIOTR (Viola tricolor (VIOTR)): 80%

Structure (SMILES): Cn1ncc(C(=O)c2ccc(C(F)(F)F)c3c2OCCS3(=O)=O)c1O [Example 1-45]
- Pre-emergence action against ABUTH ([1]; 80 g/ha): 100%
- Pre-emergence action against AMARE ([2]; 80 g/ha): 100%
- Pre-emergence action against STEME (Stellaria media (STEME); 80 g/ha): 100%
- Post-emergence action against AMARE [3]: 100%
- Post-emergence action against VIOTR (Viola tricolor (VIOTR)): 90%
- Post-emergence action against VERPE (Veronica persica (VERPE)): 90%

Structure (SMILES): CCn1ncc(C(=O)c2ccc(C(F)(F)F)c3c2OCCS3(=O)=O)c1O [Example 1-50]
- Pre-emergence action against ABUTH ([1]; 80 g/ha): 100%
- Pre-emergence action against AMARE ([2]; 80 g/ha): 100%
- Pre-emergence action against STEME (Stellaria media (STEME); 80 g/ha): 100%
- Post-emergence action against SETVI (Setaria viridis (SETVI)): 80%
- Post-emergence action against AMARE [3]: 100%

Structure (SMILES): Cc1nn(C)c(O)c1C(=O)c1ccc(C(F)(F)F)c2c1OCCS2(=O)=O [Example 1-55]
- Pre-emergence action against ABUTH ([1]; 80 g/ha): 100%
- Pre-emergence action against AMARE ([2]; 80 g/ha): 100%
- Pre-emergence action against STEME (Stellaria media (STEME); 80 g/ha): 100%
- Post-emergence action against AMARE [3]: 100%
- Post-emergence action against VIOTR (Viola tricolor (VIOTR)): 80%

Structure (SMILES): Cn1nc(C2CC2)c(C(=O)c2ccc(C(F)(F)F)c3c2OCC[S+]3[O-])c1O (stereo not drawn) [Example 1-116]
- Pre-emergence action against ABUTH ([1]; 80 g/ha): 80%
- Pre-emergence action against AMARE ([2]; 80 g/ha): 100%
- Pre-emergence action against STEME (Stellaria media (STEME); 80 g/ha): 100%
- Post-emergence action against SETVI (Setaria viridis (SETVI)): 90%
- Post-emergence action against AMARE [3]: 90%

Structure (SMILES): Cn1ncc(C(=O)c2ccc(C(F)(F)C(F)(F)F)c3c2OCS3)c1O [Example 1-128]
- Pre-emergence action against ABUTH ([1]; 80 g/ha): 90%
- Pre-emergence action against AMARE ([2]; 80 g/ha): 100%
- Pre-emergence action against STEME (Stellaria media (STEME); 80 g/ha): 100%
- Post-emergence action against SETVI (Setaria viridis (SETVI)): 90%
- Post-emergence action against AMARE [3]: 80%
